Experimental data taken from ChEMBL document CHEMBL1201862, “PubChem BioAssay data set” (2004).
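Growth conditions: 96-well plates. Treatment: test compound, 48 hours, 5 concentrations. Analysis: linear interpolation between bracketing concentrations; unreached endpoints set to highest concentration. GI50: concentration for 50% inhibition of growth.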 The source made the active and inactive calls. Rule as the data show it: active = GI50 up to about 1.1 µM and inactive = higher.

Legend:
Test in all cases: inhibition of tumour cell growth, NCI panel, 48 h
786-0 = system: 786-0
A498 = system: A498
A549 = system: A549
ACHN = system: ACHN
CAKI-1 = system: CAKI-1
CCRF-CEM = system: CCRF-CEM
COLO 205 = system: COLO 205
DLD-1 = system: DLD-1
DMS-273 = system: DMS-273
EKVX = system: EKVX
HCC 2998 = system: HCC 2998
HCT-116 = system: HCT-116
HCT-15 = system: HCT-15
HL-60 = system: HL-60
HOP-18 = system: HOP-18
HOP-62 = system: HOP-62
HOP-92 = system: HOP-92
HT-29 = system: HT-29
IGROV-1 = system: IGROV-1
K562 = system: K562
KM-20L2 = system: KM-20L2
KM12 = system: KM12
LOX IMVI = system: LOX IMVI
LXFL 529 = system: LXFL 529
M14 = system: M14
M19-MEL = system: M19-MEL
MOLT-4 = system: MOLT-4
Malme-3M = system: Malme-3M
NCI-H226 = system: NCI-H226
NCI-H23 = system: NCI-H23
NCI-H460 = system: NCI-H460
NCI-H522 = system: NCI-H522
OVCAR-3 = system: OVCAR-3
OVCAR-4 = system: OVCAR-4
OVCAR-5 = system: OVCAR-5
OVCAR-8 = system: OVCAR-8
RPMI-8226 = system: RPMI-8226
RXF 631 = system: RXF 631
SF-268 = system: SF-268
SF-295 = system: SF-295
SF-539 = system: SF-539
SK-MEL-28 = system: SK-MEL-28
SK-MEL-2 = system: SK-MEL-2
SK-MEL-5 = system: SK-MEL-5
SK-OV-3 = system: SK-OV-3
SN12C = system: SN12C
SNB-19 = system: SNB-19
SNB-75 = system: SNB-75
SNB-78 = system: SNB-78
SR = system: SR
SW-620 = system: SW-620
TK-10 = system: TK-10
U-251 = system: U-251
UACC-257 = system: UACC-257
UACC-62 = system: UACC-62
UO-31 = system: UO-31
XF498 = system: XF498
DMS-114 = system: DMS-114
RXF 393 = system: RXF 393

In the case of `COc1ccccc1NC(=O)C(CC(C(=O)Nc1ccccc1OC)/C(C)=N/Nc1ccc([N+](=O)[O-])cc1[N+](=O)[O-])/C(C)=N/Nc1ccc([N+](=O)[O-])cc1[N+](=O)[O-]` (centres undefined), the GI50 (786-0) is reported as > 100 µM (inactive), the GI50 (A498) is reported as 51.1 µM (inactive) and the GI50 (A549) is reported as > 65.5 µM (inactive). For the same compound, the GI50 (ACHN) was > 86.1 µM (inactive), the GI50 (CAKI-1) was 41 µM (inactive) and the GI50 (CCRF-CEM) was 63.5 µM (inactive). For the same compound, the GI50 (COLO 205) was 69 µM (inactive), the GI50 (DLD-1) was 80.4 µM (inactive) and the GI50 (DMS-273) was 56 µM (inactive). The GI50 (EKVX) was > 88.7 µM (inactive), the GI50 (HCC 2998) was > 82 µM (inactive) and the GI50 (HCT-116) was > 59.3 µM (inactive). For the same compound, the GI50 (HCT-15) was over 91.6 µM, the GI50 (HL-60) was 41.5 µM (inactive) and the GI50 (HOP-18) was > 95.3 µM (inactive). The GI50 (HOP-62) was > 95.5 µM (inactive), the GI50 (HOP-92) was 54.3 µM (inactive) and the GI50 (HT-29) was > 100 µM (inactive). The GI50 (IGROV-1) was 54.5 µM (inactive), the GI50 (K562) was > 65.9 µM (inactive) and the GI50 (KM-20L2) was > 100 µM (inactive). For the same compound, the GI50 (KM12) was 58.5 µM (inactive), the GI50 (LOX IMVI) was 40.2 µM (inactive) and the GI50 (LXFL 529) was 32.4 µM (inactive). The GI50 (M14) was 40.4 µM (inactive), the GI50 (M19-MEL) was > 100 µM (inactive) and the GI50 (MOLT-4) was 1.7 µM (inactive). The GI50 (Malme-3M) was > 100 µM (inactive), the GI50 (NCI-H226) was > 100 µM (inactive) and the GI50 (NCI-H23) was > 83.8 µM (inactive). The GI50 (NCI-H460) was > 100 µM (inactive), the GI50 (NCI-H522) was > 73.1 µM (inactive) and the GI50 (OVCAR-3) was 77.4 µM (inactive). The GI50 (OVCAR-4) was > 81.3 µM (inactive), the GI50 (OVCAR-5) was > 100 µM (inactive) and the GI50 (OVCAR-8) was > 71 µM (inactive). For the same compound, the GI50 (RPMI-8226) was 63.1 µM (inactive), the GI50 (RXF 631) was 40.6 µM (inactive) and the GI50 (SF-268) was > 84.9 µM (inactive). The GI50 (SF-295) was > 93.1 µM (inactive), the GI50 (SF-539) was > 90.2 µM (inactive) and the GI50 (SK-MEL-28) was > 83.2 µM (inactive). For the same compound, the GI50 (SK-MEL-2) was > 100 µM (inactive), the GI50 (SK-MEL-5) was 31.6 µM (inactive) and the GI50 (SK-OV-3) was > 92.7 µM (inactive). The GI50 (SN12C) was > 100 µM (inactive), the GI50 (SNB-19) was > 100 µM (inactive) and the GI50 (SNB-75) was 52.1 µM (inactive). For the same compound, the GI50 (SNB-78) was > 100 µM (inactive), the GI50 (SR) was 0.916 µM (active) and the GI50 (SW-620) was > 94.8 µM (inactive). The GI50 (TK-10) was 14.6 µM (inactive), the GI50 (U-251) was > 100 µM (inactive) and the GI50 (UACC-257) was > 72.3 µM (inactive). The GI50 (UACC-62) was > 100 µM (inactive), the GI50 (UO-31) was 27 µM (inactive) and the GI50 (XF498) was 51.6 µM (inactive).
In the case of `CC1CC[C@]2(C(=O)O)CCC3(C)C(=CC(=O)C4[C@@]5(C)CCC(=O)C(C)(C)C5CC[C@]43C)[C@@H]2[C@H]1C` (some centres undefined), the GI50 (786-0) is reported as 31.8 µM (inactive), the GI50 (A498) is reported as 32.4 µM (inactive) and the GI50 (A549) is reported as 24.5 µM (inactive). The GI50 (ACHN) was 21 µM (inactive), the GI50 (CAKI-1) was 39.8 µM (inactive) and the GI50 (CCRF-CEM) was 14.4 µM (inactive). For the same compound, the GI50 (COLO 205) was 17.6 µM (inactive), the GI50 (DMS-114) was 19.7 µM (inactive) and the GI50 (EKVX) was 31.6 µM (inactive). The GI50 (HCT-116) was 18.1 µM (inactive), the GI50 (HL-60) was 4.75 µM (inactive) and the GI50 (HOP-18) was 31.9 µM (inactive). The GI50 (HOP-62) was 22.1 µM (inactive), the GI50 (HOP-92) was 25 µM (inactive) and the GI50 (HT-29) was 28.4 µM (inactive). For the same compound, the GI50 (IGROV-1) was 26.9 µM (inactive), the GI50 (K562) was 23.6 µM (inactive) and the GI50 (KM-20L2) was > 10 µM (inactive). For the same compound, the GI50 (KM12) was 18.7 µM (inactive), the GI50 (LOX IMVI) was 15.9 µM (inactive) and the GI50 (LXFL 529) was 18.6 µM (inactive). For the same compound, the GI50 (M14) was 29.5 µM (inactive), the GI50 (M19-MEL) was 23.3 µM (inactive) and the GI50 (MOLT-4) was 11.5 µM (inactive). For the same compound, the GI50 (Malme-3M) was 28.8 µM (inactive), the GI50 (NCI-H226) was 25.2 µM (inactive) and the GI50 (NCI-H23) was 25.1 µM (inactive). The GI50 (NCI-H460) was 26.2 µM (inactive), the GI50 (NCI-H522) was 18.4 µM (inactive) and the GI50 (OVCAR-3) was 17.4 µM (inactive). The GI50 (OVCAR-4) was 35.2 µM (inactive), the GI50 (OVCAR-8) was 29.4 µM (inactive) and the GI50 (RXF 393) was 17.8 µM (inactive). The GI50 (RXF 631) was 27.3 µM (inactive), the GI50 (SF-268) was 54.3 µM (inactive) and the GI50 (SF-295) was 31 µM (inactive). For the same compound, the GI50 (SF-539) was 18.9 µM (inactive), the GI50 (SK-MEL-28) was 18 µM (inactive) and the GI50 (SK-MEL-5) was 20.7 µM (inactive). The GI50 (SK-OV-3) was 34.5 µM (inactive), the GI50 (SN12C) was 29.9 µM (inactive) and the GI50 (SNB-19) was 40.5 µM (inactive). The GI50 (SNB-75) was 35.5 µM (inactive), the GI50 (SNB-78) was 46.2 µM (inactive) and the GI50 (SR) was 10.9 µM (inactive). For the same compound, the GI50 (SW-620) was 39.9 µM (inactive), the GI50 (TK-10) was 28.3 µM (inactive) and the GI50 (U-251) was 27.4 µM (inactive). For the same compound, the GI50 (UACC-257) was 23.2 µM (inactive), the GI50 (UACC-62) was 13.2 µM (inactive) and the GI50 (UO-31) was 12.5 µM (inactive). The GI50 (XF498) was 10 µM (inactive).
